From US9889093B2, “Application of andrographolide in the preparation of a pharmaceutical for treatment of inflammatory bowel disease, andrographolide enteric targeting micropellet, and method for preparation thereof” (TASLY PHARMACEUTICAL GROUP CO., LTD., priority 2013, dated 2018)
Marks after values point to notes of the source that are not given here.

What was measured:
Format in all cases: in vivo
[1] = test system: DSS-induced UC mice; test: DSS-induced UC mouse model, disease active index; details: mesalazine enteric tablet 227.5 mg/kg/d
From the text: 4 Dose Designing and Grouping • 4.1 Grouping: quarantine-qualified 84 mice were randomly divided into 6 groups: the model control group, the positive control group, the tested drug low-dose intragastric group, the tested drug high-dose intragastric group, the tested drug low-dose intracolonical group and the tested drug high-dose intracolonical group, 14 mice per group. All animals drank 5% DSS solution daily for consecutive 14 days to establish UC model. Animals were administrated with the drug for treatment on the 2nd day after being given 5% DSS drinking water. • 4.2 Dose: in this study, dose of administration of the mice in all groups was designed on the basis of client's requirements, and the same doses were adopted in both intragastric and intracolonical groups. Animals were not treated in the model control group, the positive control group (mesalazine enteric tablet, 227.5 mg·kg^−1·d^−1), the andrographolide low-dose intragastric group (60 mg·kg^1·d^−1), the andrographolide high-dose intragastric group (180 mg·kg^−1·d^−1), the andrographolide low-dose intracolonical group (60 mg·kg^−1·d^−1) and the andrographolide high-dose intracolonical group (180 mg·kg^−1·d^−1).
5 Method • 5.1 Method of making UC model: all animals drank 5% DSS solution daily for consecutive 14 days. • 5.2 Method of administration: on the 2nd day after modeling, the mice were treated intragastrically or intracolonically with the drug at 1 mL/100 g once a day for consecutive 14 days. • 5.3 Method for sampling in experiment: 2 hours after the last administration, the mice were killed by cervical vertebra dislocation and abdomen was opened to separate the colon. Along mesenteric side, the intestinal lumen was cut and rinsed with 4° C. normal saline and spread on a plastic plate. • 5.4 Method for evaluating disease active index (DAI): the disease active index was assessed at the 7th and 14th day after administration. The method was presented together with the following three parameters: the body weight loss percentages (unchanged BW: 0 score, 1˜5: 1 score, 5˜10: 2 score, 10˜15: 3 score, more than 15: 4 score), stool viscosity (normal stool: 0 score, loosen stool: 2 score, diarrhea: 4 score) and blood stool (normal stool: 0 score, occult blood stool: 2 score and positive blood stool: 4 score). Total score of three parameters was divided by 3 to give the DAI, namely DAI=(BW index score+stool character score+stool blood score)/3.
6 Observation Indices • 6.1 Observation: the general clinical symptoms in the mice were observed daily from the beginning to the end of the experiment, and the stool, mental status and death status were recorded. • 6.2 Body weight: BW was recorded weekly from the beginning to the end of the experiment. • 6.3 Calculation of DAI: DAI was calculated on the 7th and 14th day after administration so as to assess disease activity. • 6.4 The colon mucosal tissue 8˜10 cm away from the anus was sampled, embedded with paraffin and stained with routine HE. Colon mucosal injury was observed by a microscope and histological injury was scored based on the following indices: ulcer inflammatory granuloma, fibrosis and pathological degree.
(§1) Data were expressed as mean+standard deviation (x±S). All numerical variables were analyzed with SPSS13.0 software by one-way ANOVA. T-test analysis was used for inter-group comparison.

[2] = test system: TNBS-induced UC rats; test: TNBS-induced UC rat model, different administration routes
From the text: 4 Dose Designing and Grouping • 4.1 Grouping: quarantine-qualified 84 rats were all used for making UC model. The successful rats were randomly divided into 6 groups: the model control group, the positive control group, the andrographolide low-dose intragastric group, the andrographolide high-dose intragastric group, the andrographolide low-dose intracolonical group and the andrographolide high-dose intracolonical group, 14 rats per group. • 4.2 Dose: the same doses were adopted in both intragastric and intracolonical groups. Animals were not treated in the model control group, the positive control group (mesalazine enteric tablet, 420 mg·kg^−1·d^−1), the andrographolide low-dose intragastric group (30 mg·kg^−1·d^−1), the andrographolide high-dose intragastric group (90 mg·kg^−1·d^−1), the andrographolide low-dose intracolonical group (30 mg·kg^−1·d^−1) and the andrographolide high-dose intracolonical group (90 mg·kg^−1·d^−1).
5. Method • 5.1 Method of making UC model: the rats were anesthetized. 2 mm-diameter latex tube was gently inserted into the position about 8 cm inside the body of the rats through anus, and TNBS in 50% ethanol solution (TNBS 125 mg/kg) was injected into intestinal lumen with an injector by one time, 0.5 ml/rat. The tail of the rat was lifted up for 30 s to make the model making agent (i.e., TNBS) fully infiltrate into the intestinal lumen of the rats. • 5.2 Method of administration: the same dose (1 mL/100 g) was adopted in both intragastric and intracolonical administration, once daily for consecutive 5 days. • 5.3 Method for sampling in experiment: 2 hours after the last administration, the rats were killed by cervical vertebra dislocation and abdomen was opened to separate the colon. Along mesenteric side, the intestinal lumen was cut and rinsed with 4° C. normal saline and spread on a plastic plate. • 5.4 Scoring method for colon gross morphological injury was referred to scoring method for mucosal injury (Bjelkengren G, Aronsen K F, Augustsson N E, etc. Radioprotective effect of local administration of lysine vasopressin and triglycyl lysine vasopressin on the rectal mucosa in rats[J]. Acta Oncol, 1995, 34(4):487-92) to record the mucosal injury score: dotted line blooding and small red spots (<1 mm): 1 score, piece blooding and big red spots (=1 mm): 3 score; and erosion and ulcer: 5 score.
as §1

[3] = test system: TNBS-induced colitis mice; test: TNBS-induced UC (colitis) mouse model
Protocol: 5% (w/v) TNBS solution was diluted with double-distilled water and mixed with 50% (v/v) ethanol in equal volume to have 1.5% (w/v) TNBS solution. In the model control group, the mice were anesthetized with 1 wt % pentobarbital solution at a dose of 0.05 ml/10 g body weight. After being anesthetized, the mice were administrated with 1.5% (w/v) TNBS solution at a dose of 0.1 ml/mouse by gently inserting stomach perfusion device to about 3 cm depth via anus and arriving at the colon, and the IBD was induced. In the saline group, the saline was gently injected into the colon at a dose of 0.1 ml/mouse. In the normal control group, 50% (v/v) ethanol was gently injected into the colon at a dose of 0.1 ml mouse.
After one week adaptive feeding, all animals were randomly divided into 5 groups according to body weight, 10 mice in one group: the normal control group, the model control group, the andrographolide low-dose group (20 mg/kg/d), the andrographolide high-dose group (40 mg/kg/d) and the positive control group (Sulfasalazine group, 300 mg/kg/d). Two hours after making model, the animals in each treating groups were orally administrated twice daily with the andrographolide and once daily in the positive control group. After successive administration for 7 days, the abdomen was opened 24 hours after the last administration to observe adhesion degree between the colon and other organs. The colon was separated and weighed.
1. Body weight: after making model, body weight was measured every day to observe the change in the animals.
2. Evaluation of inflammation: the abdomen was opened 24 hours after the last administration to observe adhesion degree between the colon and other organs. Every segment of the colon was taken out and weighed to calculate the percentage of the colon weight to body weight, as the colon index. The formula was presented as follows: Decrease rate of colon specific weight=(colon index of the model control group−colon index of the treatment group)/colon index of the model control group×100%
3. Histopathological examination: a part of the colon was taken to prepare the pathological section, and the standard for score was as follows: • 0 score, no inflammatory symptoms; • 1 score, low-grade inflammation with no structure change; • 2 score, low-grade leukocyte infiltration; • 3 score, high-grade leukocyte infiltration, high vascular density, crypt extension, thickened colon wall and superficial ulcer • 4 score, high-grade leukocyte infiltrating exceeding to mucous layer, crypt extension, decrease of goblet cell, high vascular density, thickened colon wall and extensive ulcer
SPSS11.5 software was used for analysis and the data were expressed as x±S. Variance analysis was used for comparison of significant difference among groups.

[4] = test system: zebra fish Crohn's disease model; test: Zebra fish Crohn's disease model (TNBS), efficacy; details: intestinal tissue; prednisolone 10 μM; x ± SE, n = 10
[5] = mesalazine enteric tablet 420 mg/kg, once daily 5 days
[6] = sulfasalazine 300 mg/kg/d, once daily, 7 days

## Nc1ccc(O)c(C(=O)O)c1 [Positive control group, mesalazine, reference compound]
[1]
  DAI on the 7th day: 1.31 ± 0.14
  DAI on the 14th day: 1.10 ± 0.55
[2]; [5]
  Gross morphological injury score: 3.16 ± 1.97
  Ulcer ratio: 35.45* %
[2]; positive control group 420 mg/kg
  Formless watery stool symptoms, course: most of watery stool symptoms disappeared in the rats on the 5th˜6th days

## O=C(O)c1cc(/N=N/c2ccc(S(=O)(=O)Nc3ccccn3)cc2)ccc1O [Sulfasalazine, reference compound]
[3]; FIG. 1, treated groups
  Body weight increase compared with the model control group: increased faster than that in the model control group
[3]; histopathological score 0-4, sulfasalazine 300 mg/kg/d, 7 days
  Colon scores: 2.8*
[3]; percentage of colon weight to body weight, sulfasalazine 300 mg/kg/d, 7 days
  Colon indices: 1.75 ± 0.43
[3]; [6]
  Body weight: 19.13 ± 0.99 g
  Colon weight: 0.33 ± 0.06 g
[3]; treated groups, after 7 days
  Intestinal elasticity compared with the model control group: higher than that in the model control group
[3]; vs model control group, sulfasalazine 300 mg/kg/d, 7 days
  Decrease rate of colon specific weight: 47.87%

## C[C@]12C=CC(=O)C=C1CC[C@@H]1[C@@H]2[C@@H](O)C[C@@]2(C)[C@H]1CC[C@]2(O)C(=O)CO [prednisolone, reference compound]
[4]
  Number of Neutrophil: 14 ± 0.60
